Laboratory results from patent publication US12187624B2, “Method of acylating amino acids and uses of N-acyl amino acid products” (NewSouth Innovations Pty Limited, priority 2019, dated 2025).
“And” between values parts separate entries of the source, which are not always exact repeats. Equal values may be shown once.

Columns and labels:
[1] = Ion flotation of Cd solution in air bubble column, ICP-MS analysis; conditions: Csurfactant = 0.01M
Method: (§1) In a model experiment, 0.01M of the N-octanoyl-cys surfactant was dissolved (with heating around 65° C. while stirring) in a 5 mg L^−1 solution (i.e. 5 ppm) of Cd containing 0.1 M NaOH and finally made up to 100 ml using Milli-Q water, with the pH of around 8.
(§2) The solution was then poured into a column (with 30 cm height and 3 cm diameter) while a 2 L/min flow of air gas was passed through it with air pump (Hiblow HP40, Philippines). Two samples were taken after each of 30 and 60 minutes from around 2 cm top of the sinter, and the Cd concentrations of each sample was determined by ICP-MS analysis. The upper-outlet foam was also collected in a waste container using an outlet tube.
The same procedure was used with the N-octyl-cys surfactant in the flotation experiment, but where the pH of the solution was increased to 12, to enable this surfactant to successfully produce a foam (this difference is discussed later).

[2] = Critical micelle concentration (CMC) from conductivity versus surfactant concentration; assay type: physicochemical
Method: The CMC of N-octanoyl-cys prepared by this method was determined to be 0.1M. The CMC was determined using a Bench-Top water quality meter, SPER SCIENTIFIC Instrument model 860033 to measure the conductivity and pH of the surfactant solution. The CMC value of the surfactant was measured by plotting conductivity values versus different surfactant concentrations at pH 9 by adding NaOH solution (0.1 mol L^−1) and 25.0° C. The CMC was obtained as the point of sharp transition in the slope of conductivity with increasing surfactant concentration (data not shown).
The CMC of the N-octanoyl-cys surfactant prepared by Exemplary method 1, in Na^+ form at pH 8, was determined (as reported above for Comparative method 1 above from measurements of the electrical conductivity with surfactant concentration) to be about 0.09 mol/L, see FIG. 3.
The same protocols as described above were used to determine the CMC and melting point of the twice-recrystallised N-octyl-cysteine surfactant. The values measured were 0.1M and 145° C., respectively. These values are consistent with literature values.

[3] = Foaming test of surfactant solutions at different pH; assay type: physicochemical; conditions: Csurfactant = 0.01M; solutions at pH 3, 6, 9, 12 (FIG. 6)
From the text: FIG. 6 is a pair of photos from the foaming test described in Example 2; the first photo (upper) is a photo of N-octanoyl cysteine solutions at: pH 3 (far left), pH 6 (middle left), pH 9 (middle right) and pH 12 (far right) and the second photo (lower) is a photo of N-octyl cysteine solutions at: pH 3 (far left), pH 6 (middle left), pH 9 (middle right) and pH 12 (far right). (Csurfactant=0.01M and the pH adjusted with […]).

[4] = Ion flotation of calcium solution in air bubble column, ICP-MS analysis
Method: as §1, §2
In the second series of ion flotation experiments, N-octanoyl-cys surfactant (obtained by Exemplary method 1) was used for removing calcium ions using air in the ion flotation process.

[5] = cited from earlier work
[6] = pH 12, Ccalcium = 5 mg L^−1, Csurfactant = 0.01M, air bubbles

CMC ([2]; twice-recrystallised surfactant, same protocols as for N-octanoyl-cys) [M] | Molecule | Adsorption (%) After 60 min ([1]; operating pH 8, 5 mg L^−1 Cd, listed as N-octanoyl-cys (Comparative method 1)) [%] | Adsorption (%) After 60 min ([1]; operating pH 8, 5 mg L^−1 Cd, listed as N-octanoyl-cys (Exemplary method 1)) [%] | Adsorption (%) After 60 min ([1]; operating pH 12, 5 mg L^−1 Cd) [%] | CMC ([2]; N-octanoyl-cys prepared by Comparative method 1, pH 9 (NaOH), 25.0° C.) [M] | CMC ([2]; prepared by Exemplary method 1, in Na+ form at pH 8) | pH at which the surfactant starts foaming (foaming point) [3] | Adsorption (%) After 60 min ([4]; pH 8, Ccalcium = 5 mg L^−1, Csurfactant = 0.01M) | C(mg L^−1) (RSD %) After 30 min ([4]; pH 8, Ccalcium = 5 mg L^−1, Csurfactant = 0.01M, air bubbles) | pKa of the amide group (protonation) [5] | Adsorption (%) After 60 min ([4]; pH 12, Ccalcium = 5 mg L^−1, Csurfactant = 0.01M) | C(mg L^−1) (RSD %) After 30 min [4, 6] | C(mg L^−1) (RSD %) After 60 min [4, 6] | pKa of the amine group (protonation) [5]
– | CCCCCCCC(=O)N[C@@H](CS)C(=O)O [N-octanoyl-cys, N-octanoyl-cysteine] | 99.2 | 99.8 | 12.3 | 0.1 | about 0.09 mol/L | ~6 | 97% and 97.3% | 0.72 (42.02) mg L^−1 | around −0.5 | – | – | – | –
0.1 | N-octyl-cysteine [reference compound] | – | – | – | – | – | – | – | – | – | – | – | – | –
– | CCCCCCCCN[C@@H](CS)C(=O)O [N-octyl-cys, N-octyl-cysteine] | – | – | 14.2 | – | – | > 12 | – | – | – | 14% and 14.6% | 4.89 (0.87) mg L^−1 | 4.27 (3.31) mg L^−1 | about 10.7
